Entries after “also recorded” stand apart in the source; their conditions may differ.
How the values were obtained:
[1] = system: patient-derived xenografts from MDS/AML; assay: engraftment of patient-derived MDS/AML xenografts in NSG mice given exogenous recombinant human IL8; assay type: in vivo, mouse; conditions: for engraftment of primary MDS and AML patients' cells: 3 patient derived xenografts (1 AML, 2 MDS)
Description: FIG. 2A-2E. Efficacy of human IL8 addition in patient-derived xenografts from MDS/AML. […] Averaged data in (C); data from individual subjects in (D). The improvement in engraftment is sustained (as shown for representative PDX) (E).

CXCR2 = target: T1, CXCR2 (Homo sapiens, UniProt P25025); conditions: cited from earlier work
T1 sequence (P25025 1-360): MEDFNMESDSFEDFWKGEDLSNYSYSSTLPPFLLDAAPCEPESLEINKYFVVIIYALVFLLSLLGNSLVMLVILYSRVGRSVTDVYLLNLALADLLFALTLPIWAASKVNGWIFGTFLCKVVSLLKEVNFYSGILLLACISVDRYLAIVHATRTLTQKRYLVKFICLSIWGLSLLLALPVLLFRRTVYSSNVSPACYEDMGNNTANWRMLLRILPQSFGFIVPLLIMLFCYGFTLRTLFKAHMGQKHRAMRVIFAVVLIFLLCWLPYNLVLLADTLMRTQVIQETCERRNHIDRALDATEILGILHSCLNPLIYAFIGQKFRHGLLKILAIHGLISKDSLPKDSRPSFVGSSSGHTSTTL

AML cell lines = conditions: all AML cell lines; cited from earlier work
[2] = system: healthy control CD34+ cells; conditions: cited from earlier work
[3] = system: primary samples from AML and high risk MDS cases; conditions: cited from earlier work
[4] = system: primary AML patient cells; assay: AML cell engraftment in NSG mice pre-transplanted with doxycycline-induced hIL-8-transgenic bone marrow cells; assay type: in vivo, mouse; conditions: 4 months post-transplantation; for increase of AML cell engraftment vs uninduced control: p=0.0106, N=8
Description: FIG. 3. Xenotransplantation of primary AML cells into NSG mice pre-transplanted with hIL8-transgenic and doxycycline-induced congenic bone marrow cells leads to a more than 10-fold increase (p=0.0106, N=8) of AML cell engraftment.
We have generated a new transgenic mouse model in which we inserted a doxycycline-inducible human IL-8 transgene into the immunocompromised NSG mouse strain. We then performed congenic transplantation of hIL-8-transgenic bone marrow cells into 8 parental NSG mice, followed by doxycycline-triggered induction of hIL-8 in 4 of the recipient mice. 4 uninduced mice served as a control. We then xenotransplanted 5×10^6 leukemic cells from an AML patient into these animals and determined AML cell engraftment in the bone marrow 4 months post-transplantation. […] We have now a novel transgenic mouse system available that permits for the first time the generation of robust primary xenografts and PDX models from AML and MDS patients' cells, which can be used for drug development and testing purposes as well as functional/mechanistic studies.

IL8 = assay: serum IL8 levels by ELISA in patients; assay type: in vivo, human; conditions: 3 patients
Description: FIG. 1A-1C. IL8 is detectable in MDS/AML serum and correlated with disease severity. ELISA for IL8 was done on controls and MDS and AML patient serum samples. […] IL8 levels were increased after transformation of low risk MDS to higher risk MDS/AML (B) and decreased after treatment with 5-Azacytidine (C).
It was previously shown that IL8 mRNA is overexpressed in MDS and AML cells. It was now determined whether IL8 can be detected in serum of patients with MDS and AML. A total of 33 patients (MDS low risk (21), MDS high risk (6) and AML (6)) and 30 controls sera were collected and analyzed for IL8 levels by ELISA. […] Furthermore, IL8 levels went up in 3 patients that transformed from low risk MDS to higher risk MDS or AML (FIG. 1B). Additionally, IL8 levels dropped after treatment in another 3 patients that were treated with 5-Azacytidine (FIG. 1C).

rhIL8: exogenous recombinant human IL8 injected into xenotransplant recipient mice
engraftment of primary MDS and AML patients' cells [1]: increased engraftment | engraftment of primary MDS and AML patients' cells ([1]; listed as IL8): highly significant increase | engraftment from AML sample ([1]; NSG mice, after 3 weeks of treatment, vs vehicle controls): higher engraftment

NS(=O)(=O)c1c(Cl)ccc(NC(=O)Nc2cccc(Cl)c2Cl)c1O [SB332235]
selectivity for CXCR2 over CXCR1 (CXCR2): 100 fold | proliferation (AML cell lines): dose dependent decrease in proliferation | growth of healthy control CD34+ cells [2]: only minimally affecting growth | proliferation in primary samples [3]: significant inhibition of proliferation

hIL-8: human IL-8 expressed from doxycycline-inducible transgene in transplanted bone marrow cells of NSG mice
AML cell engraftment in the bone marrow (average) ([4]; doxycycline-induced hIL-8, 5×10^6 leukemic cells): 42.2% | increase of AML cell engraftment vs uninduced control [4]: 10.4 fold | increase of AML cell engraftment vs uninduced control ([4]; listed as hIL8): more than 10 fold

Nc1ncn([C@@H]2O[C@H](CO)[C@@H](O)[C@H]2O)c(=O)n1 [5-Azacytidine]
IL8 levels in serum after treatment (IL8): decreased; also recorded: dropped
